Assay [1] has as its target T1, recombinant human FLAP protein (Homo sapiens, UniProt P20292).
T1 construct: made in house; host or cells: Sf9 insect cells (100,000×g membrane pellet used)
T1 sequence (P20292 1-161): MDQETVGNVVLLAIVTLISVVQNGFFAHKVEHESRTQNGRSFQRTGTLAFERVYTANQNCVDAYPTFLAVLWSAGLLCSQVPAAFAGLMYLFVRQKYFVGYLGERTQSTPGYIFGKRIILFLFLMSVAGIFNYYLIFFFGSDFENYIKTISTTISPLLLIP
Nature of the assay: FLAP binding assay (SPA, displacement of [125I]L-691,831). Conditions: membranes of sf9 cells expressing recombinant human FLAP; [125I]L-691,831 probe; read-out: FLAP binding IC50. The method, then:
Assessment of Biological Properties 1. Binding Assay
Compounds are assessed for the ability to bind to FLAP in a binding assay that measures compound-specific displacement of an iodinated (^125I) FLAP inhibitor via a Scintillation Proximity Assay format (adapted from S. Charleson et al., Mol. Pharmacol., 1992, 41, 873-879).
Cell pellets produced from sf9 insect cells expressing recombinant human FLAP protein are resuspended in buffer A [15 mM Tris-HCl (pH 7.5), 2 mM MgCl2, 0.3 mM EDTA, 1 mM PMSF]. The cells are lysed with a Dounce homogenizer and the material is centrifuged at 10,000×g for 10 minutes. The supernatant is then collected and centrifuged at 100,000×g for 60 minutes. To prepare membrane protein for an assay, an aliquot of the 100,000×g pellet is resuspended in 1 ml of buffer A, Dounce homogenized, and finally subjected to polytron mixing (30 seconds). Membrane protein (25 μl, 5 μg) is mixed with WGA SPA beads (Amersham) and stirred for 1 h. […] (final concentrations: beads, 200 μg/well; protein, 5 μg/well; [^125I] probe, 0 08 nM/well (17 nCi/well). The plates are shaken for 2 h before reading on a Microbeta plate reader. Non-specific binding is determined by the addition of 10 μM cold L-691,831 compound.

Assay [2] concerns synthesis of LTB4 in human whole blood. Nature of the assay: Human whole blood assay (inhibition of LTB4 synthesis, calcimycin stimulated). The class given is cell-based. The note with it: heparinized human whole blood, calcimycin 20 μM, plasma LTB4. As for the experimental part:
Compounds are additionally tested in a human whole blood assay to determine their ability to inhibit the synthesis of LTB4 in a cellular system. Compounds are combined with heparinized human whole blood and incubated for 15 minutes at 37° C. Calcimycin (20 μM final, prepared in phosphate-buffered saline, pH 7.4) is then added and the mixture is incubated for another 30 minutes at 37° C. The samples are centrifuged for 5 min at low speed (1500×g) and the plasma layer is removed. Plasma LTB4 concentrations are then measured using an antibody-based homogenous time-resolved fluorescence method (CisBio, Bedford, Mass.).

Molecules are shown by their SMILES. A value given as a limit tells only on which side of the number the result lay.

Usually IC50 stands for the concentration that inhibits the measured activity by half.

Take `C[C@@](c1ccc(-c2ccc(N)nc2)cc1)(c1noc(N2CCC(O)CC2)n1)C1CC1` [Example 282, 1-(3-{(R)-1-[4-(6-Amino-pyridin-3-yl)-phenyl]-1-cyclopropyl-ethyl}-[1,2,4]oxadiazol-5-yl)-piperidin-4-ol]: the IC50 is 6.5 nM in assay [1] and 44 nM in assay [2].

For `CC(c1ccc(-c2cnc(N)nc2)cc1)(c1noc(-c2cnn(C3COC3)c2)n1)C1CC1` (stereo not drawn) [Example 43, 5-[4-(1-cyclopropyl-1-{5-[1-(oxetan-3-yl)-1H-pyrazol-4-yl]-1,2,4-oxadiazol-3-yl}ethyl)phenyl]pyrimidin-2-amine], the IC50 in assay [1] was 2.5 nM; in assay [2] it was 30 nM. The matching figures for `CC(C)(CO)Nc1cnc(-c2nc(C(C)(C)c3ccc(-c4cnc(N)nc4)cc3)no2)cn1` [Example 74, 2-{[5-(3-{2-[4-(2-aminopyrimidin-5-yl)phenyl]propan-2-yl}-1,2,4-oxadiazol-5-yl)pyrazin-2-yl]amino}-2-methylpropan-1-ol]: 17 nM and 640 nM. For `Cn1cc(-c2nc([C@H](c3ccc(-c4cnc(N)nc4)cc3)C(C)(C)C)no2)cn1` [Example 66, 5-(4-{(1S)-2,2-dimethyl-1-[5-(1-methyl-1H-pyrazol-4-yl)-1,2,4-oxadiazol-3-yl]propyl}phenyl)pyrimidin-2-amine], the IC50 in assay [1] turned out to be 11 nM; in assay [2], 330 nM. With `CN(C)C(=O)Cn1cc(-c2nc([C@@](C)(c3ccc(-c4cnc(N)c(F)c4)cc3)C3CC3)no2)cn1` [Example 291, 2-[4-(3-{(R)-1-[4-(6-Amino-5-fluoro-pyridin-3-yl)-phenyl]-1-cyclopropyl-ethyl}-[1,2,4]oxadiazol-5-yl)-pyrazol-1-yl]-N,N-dimethyl-acetamide], the concentration for half-maximal inhibition (IC50) in assay [1] was 4.5 nM; in assay [2], 89 nM.

With `CC(=O)N1CCC(NC(=O)c2nc(C(C)(c3ccc(-c4cnc(N)nc4)cc3)C(C)C)no2)CC1` (stereo not drawn) [Example 86, N-(1-acetylpiperidin-4-yl)-3-{2-[4-(2-aminopyrimidin-5-yl)phenyl]-3-methylbutan-2-yl}-1,2,4-oxadiazole-5-carboxamide], the IC50 in assay [1] is 190 nM; in assay [2], greater than 5000 nM.

Consider `CC(C)C(C)(c1ccc(-c2cnc(N)nc2)cc1)c1noc(-c2cnco2)n1` (stereo not drawn) [Example 132, 5-(4-{3-methyl-2-[5-(1,3-oxazol-5-yl)-1,2,4-oxadiazol-3-yl]butan-2-yl}phenyl)pyrimidin-2-amine], for which the IC50 in assay [1] stood at 2.8 nM; in assay [2] it was 330 nM.

As for `Cc1nc(C)c(-c2nc(C(C)(c3ccc(-c4cnc(N)nc4)cc3)C(C)C)no2)s1` (stereo not drawn) [Example 153, 5-(4-{2-[5-(2,4-dimethyl-1,3-thiazol-5-yl)-1,2,4-oxadiazol-3-yl]-3-methylbutan-2-yl}phenyl)pyrimidin-2-amine], the IC50 in assay [1] turned out to be 4.6 nM; in assay [2], 180 nM. Turning to `Cc1ccc(-c2nc(C(C)(c3ccc(-c4cnc(N)nc4)cc3)C(C)C)no2)c(O)n1` (stereo not drawn) [Example 157, 3-(3-{2-[4-(2-aminopyrimidin-5-yl)phenyl]-3-methylbutan-2-yl}-1,2,4-oxadiazol-5-yl)-6-methylpyridin-2-ol], the IC50 in assay [1] stood at 3.3 nM; in assay [2], 760 nM.

For `CC(C)C(C)(c1ccc(-c2cnc(N)nc2)cc1)c1noc(N2CCS(=O)(=O)CC2)n1` (stereo not drawn) [Example 168, 5-(4-{1-[5-(1,1-Dioxo-1lambda6-thiomorpholin-4-yl)-[1,2,4]oxadiazol-3-yl]-1,2-dimethyl-propyl}-phenyl)-pyrimidin-2-ylamine], the figures for the IC50 in assay [1] and in assay [2] were 21 nM and 390 nM, respectively.

Turning to `COCCNc1nc(C(C)(c2ccc(-c3cnc(N)nc3)cc2)C(C)C)no1` (stereo not drawn) [Example 81, 5-[4-(2-{5-[(2-methoxyethyl)amino]-1,2,4-oxadiazol-3-yl}-3-methylbutan-2-yl)phenyl]pyrimidin-2-amine], the half-inhibitory concentration (IC50) in assay [1] turned out to be 11 nM; in assay [2], 180 nM. In the case of `CC(C)C(C)(c1ccc(-c2cnc(N)nc2)cc1)c1noc(C2(C)CCCCC2)n1` (stereo not drawn) [Example 120, 5-(4-{3-methyl-2-[5-(1-methylcyclohexyl)-1,2,4-oxadiazol-3-yl]butan-2-yl}phenyl)pyrimidin-2-amine], the half-maximal inhibitory concentration (IC50) in assay [1] turned out to be 40 nM; in assay [2] it was 2100 nM. Turning to `CC(C)(CO)Nc1ccc(-c2nc(C(C)(C)c3ccc(-c4cnc(N)nc4)cc3)no2)cn1` [Example 72, 2-{[5-(3-{2-[4-(2-aminopyrimidin-5-yl)phenyl]propan-2-yl}-1,2,4-oxadiazol-5-yl)pyridin-2-yl]amino}-2-methylpropan-1-ol], the IC50 is 12 nM in assay [1] and 440 nM in assay [2]. `CC(C)C(C)(c1ccc(-c2cnc(N)nc2)cc1)c1noc(N2CCC(O)CC2)n1` (stereo not drawn) [Example 262, 1-(3-{1-[4-(2-Amino-pyrimidin-5-yl)-phenyl]-1,2-dimethyl-propyl}-[1,2,4]oxadiazol-5-yl)-piperidin-4-ol]: the IC50 in assay [2] is 84 nM. Consider `C[C@](c1ccc(-c2cnc(N)nc2)cc1)(c1noc(N2CCC(O)CC2)n1)C1CC1` [Example 234, 1-(3-{(S)-1-[4-(2-Amino-pyrimidin-5-yl)-phenyl]-1-cyclopropyl-ethyl}-[1,2,4]oxadiazol-5-yl)-piperidin-4-ol], for which the half-maximal inhibitory concentration (IC50) in assay [2] amounted to 1000 nM. With `CC(C)[C@@](C)(c1ccc(-c2cnc(N)nc2)cc1)c1noc(N2CCC(O)CC2)n1` (single isomer, unassigned) [Example 224], in assay [2], the IC50 is 760 nM. For the compound `COc1ncccc1-c1nc(C(C)(c2ccc(-c3cnc(N)nc3)cc2)C(C)C)no1` (stereo not drawn) [Example 10, 5-(4-{2-[5-(2-methoxypyridin-3-yl)-1,2,4-oxadiazol-3-yl]-3-methylbutan-2-yl}phenyl)pyrimidin-2-amine], in assay [1], the half-maximal inhibitory concentration (IC50) was 4.3 nM. With `CC(C)C(C)(c1ccc(-c2cnc(N)nc2)cc1)c1noc(C2CC2)n1` (stereo not drawn) [Example 156, 5-{4-[2-(5-cyclopropyl-1,2,4-oxadiazol-3-yl)-3-methylbutan-2-yl]phenyl}pyrimidin-2-amine], the 50% inhibitory concentration (IC50) in assay [1] is 15 nM. As to `COc1cncc(-c2ccc(C(C)(c3noc(-c4cnccn4)n3)C(C)C)cc2)c1` (stereo not drawn) [Example 1, 2-(3-{2-[4-(5-methoxypyridin-3-yl)phenyl]-3-methylbutan-2-yl}-1,2,4-oxadiazol-5-yl)pyrazine], in assay [1], the IC50 came to 57 nM. In the case of `Cc1csc(-c2nc(C(C)(c3ccc(-c4cnc(N)nc4)cc3)C(C)C)no2)n1` (stereo not drawn) [Example 131, 5-(4-{3-methyl-2-[5-(4-methyl-1,3-thiazol-2-yl)-1,2,4-oxadiazol-3-yl]butan-2-yl}phenyl)pyrimidin-2-amine], in assay [1], the IC50 turned out to be 8.7 nM. Still for that read-out and setting: next, `CC(C)C(C)(c1ccc(-c2cnc(N)nc2)cc1)c1noc(-c2nccs2)n1` (stereo not drawn) [Example 139, 5-(4-{3-methyl-2-[5-(1,3-thiazol-2-yl)-1,2,4-oxadiazol-3-yl]butan-2-yl}phenyl)pyrimidin-2-amine]: 4.4 nM. Take `CC(c1ccc(-c2cnc(N)nc2)cc1)(c1noc(N2CCC(O)CC2)n1)C1CC1` (stereo not drawn) [Example 205, 1-(3-{1-[4-(2-Amino-pyrimidin-5-yl)-phenyl]-1-cyclopropyl-ethyl}-[1,2,4]oxadiazol-5-yl)-piperidin-4-ol]: in assay [2], the concentration for half-maximal inhibition (IC50) is 68 nM. `CC(C)[C@@](C)(c1ccc(-c2cnc(N)nc2)cc1)c1noc(N2CCC(C)(O)CC2)n1` [Example 228, 1-(3-{(S)-1-[4-(2-Amino-pyrimidin-5-yl)-phenyl]-1,2-dimethyl-propyl}-[1,2,4]oxadiazol-5-yl)-4-methyl-piperidin-4-ol]: the IC50 in assay [2] is 550 nM.

Turning to `CC(C)C(C)(c1ccc(-c2cnc(N)nc2)cc1)c1noc(N2CCC(C)(O)CC2)n1` (stereo not drawn) [Example 216, 1-(3-{1-[4-(2-Amino-pyrimidin-5-yl)-phenyl]-1,2-dimethyl-propyl}-[1,2,4]oxadiazol-5-yl)-4-methyl-piperidin-4-ol], the IC50 in assay [2] is 34 nM. As for `CC(C)C(C)(c1ccc(-c2cnc(N)nc2)cc1)c1noc(-c2cnc(=O)[nH]c2)n1` (stereo not drawn) [Example 154, 5-(3-{2-[4-(2-aminopyrimidin-5-yl)phenyl]-3-methylbutan-2-yl}-1,2,4-oxadiazol-5-yl)pyrimidin-2(1H)-one], in assay [1], the concentration for half-maximal inhibition (IC50) worked out at 3.3 nM. Same read-out and setting: next, `CC(C)C(C)(c1ccc(-c2cnc(N)nc2)cc1)c1noc(-c2ccccc2S(C)(=O)=O)n1` (stereo not drawn) [Example 149, 5-[4-(3-methyl-2-{5-[2-(methylsulfonyl)phenyl]-1,2,4-oxadiazol-3-yl}butan-2-yl)phenyl]pyrimidin-2-amine]: 58 nM.

The values above are taken from patent US8658661B2, “Oxadiazole inhibitors of leukotriene production” (Boehringer Ingelheim International GmbH, priority 2010, dated 2014).
